≈ marks a conversion by molar mass, not a printed value. Where a name gives a salt, the structure may show the parent alone. Read-outs that look alike come from different tables or passages of the source.
Tested on: pathogenic bacteria
Experiment: MIC by microdilution broth method (NCCLS M7-A4), in vitro antibacterial activity
Type: cell-based
Outline: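 Broth microdilution per NCCLS M7-A4: two-fold serial dilutions in cation-adjusted Mueller-Hinton broth, inoculum about 5×10^4 CFU/well. Trays incubated 16–20 h at 35 °C. MIC read by comparing growth against no-compound growth controls.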

[1] = Staphylococcus aureus, Organism A: Staphylococcus aureus OC4172, read-out: MIC
[2] = Streptococcus pneumoniae, ATCC49619, Organism E: Streptococcus pneumoniae ATCC 49619, read-out: MIC
[3] = Streptococcus pneumoniae, Organism B: fluoroquinolone-resistant clinical isolate of Streptococcus pneumoniae (QRDR amino acid substitutions)
[4] = Streptococcus pneumoniae, Organism C: fluoroquinolone-resistant clinical isolate of Streptococcus pneumoniae (QRDR amino acid substitutions)
[5] = Streptococcus pneumoniae, Organism D: fluoroquinolone-resistant clinical isolate of Streptococcus pneumoniae (QRDR amino acid substitutions)
[6] = Organism A: Staphylococcus aureus OC4172
[7] = Organism B: fluoroquinolone-resistant clinical isolate of Streptococcus pneumoniae (QRDR amino acid substitutions)
[8] = Organism C: fluoroquinolone-resistant clinical isolate of Streptococcus pneumoniae (QRDR amino acid substitutions)
[9] = Organism D: fluoroquinolone-resistant clinical isolate of Streptococcus pneumoniae (QRDR amino acid substitutions)
[10] = Organism E: Streptococcus pneumoniae ATCC 49619
[11] = Staphylococcus aureus, Organism A: Staphylococcus aureus OC4172
[12] = Streptococcus pneumoniae, ATCC49619, Organism E: Streptococcus pneumoniae ATCC 49619

| Compound | MIC [1] [µg/mL] | MIC [2] [µg/mL] | MIC [3] [µg/mL] | MIC [4] [µg/mL] | MIC [5] [µg/mL] | MIC [6] [µg/mL] | MIC [7] [µg/mL] | MIC [8] [µg/mL] | MIC [9] [µg/mL] | MIC [10] [µg/mL] | MIC [11] [µg/mL] | MIC [12] [µg/mL] |
| --- | --- | --- | --- | --- | --- | --- | --- | --- | --- | --- | --- | --- |
| CC(CO)=C1CCN(c2c(F)cc3c(=O)c(C(=O)O)cn4c3c2OCC4C)CC1 (stereo not drawn) [Compound 211, 8-Fluoro-9-[4-(2-hydroxy-1-methyl-ethylidene)-piperidin-1-yl]-3-methyl-6-oxo-2,3-dihydro-6H-1-oxa-3a-aza-phenalene-5-carboxylic acid] | 0.03 (≈ 0.0745 µM) | 0.5 (≈ 1.24 µM) | 4 (≈ 9.94 µM) | 4 (≈ 9.94 µM) | – | – | – | – | – | – | – | – |
| COc1c(N2CCC(=CCN)CC2)c(F)cc2c(=O)c(C(=O)O)cn(C3CC3)c12 [Compound 212, 7-[4-(2-Amino-ethylidene)-piperidin-1-yl]-1-cyclopropyl-6-fluoro-8-methoxy-4-oxo-1,4-dihydro-quinoline-3-carboxylic acid] | 0.06 (≈ 0.149 µM) | 0.12 (≈ 0.299 µM) | 1 (≈ 2.49 µM) | 2 (≈ 4.98 µM) | 2 (≈ 4.98 µM) | – | – | – | – | – | – | – |
| CNCC(F)=C1CCN(c2c(F)cc3c(=O)c(C(=O)O)cn(C4CC4)c3c2OC)CC1 [Compound 213, 1-Cyclopropyl-6-fluoro-7-[4-(1-fluoro-2-methylamino-ethylidene)-piperidin-1-yl]-8-methoxy-4-oxo-1,4-dihydro-quinoline-3-carboxylic acid] | 0.12 (≈ 0.277 µM) | 0.5 (≈ 1.15 µM) | – | 2 (≈ 4.61 µM) | 2 (≈ 4.61 µM) | – | – | – | – | – | – | – |
| CCNCC(F)=C1CCN(c2c(F)cc3c(=O)c(C(=O)O)cn(C4CC4)c3c2OC)CC1 [Compound 214, 1-Cyclopropyl-7-[4-(2-ethylamino-1-fluoro-ethylidene)-piperidin-1-yl]-6-fluoro-8-methoxy-4-oxo-1,4-dihydro-quinoline-3-carboxylic acid] | 0.06 (≈ 0.134 µM) | 0.25 (≈ 0.559 µM) | – | 1 (≈ 2.23 µM) | 1 (≈ 2.23 µM) | – | – | – | – | – | – | – |
| CNCC(Cl)=C1CCN(c2nc3c(cc2F)c(=O)c(C(=O)O)cn3C2CC2)CC1 [Compound 215, 7-[4-(1-Chloro-2-methylamino-ethylidene)-piperidin-1-yl]-1-cyclopropyl-6-fluoro-4-oxo-1,4-dihydro-[1,8]naphthyridine-3-carboxylic acid] | – | 0.25 (≈ 0.594 µM) | – | 2 (≈ 4.75 µM) | 2 (≈ 4.75 µM) | 0.25 (≈ 0.594 µM) | 2 (≈ 4.75 µM) | – | – | – | – | – |
| CNCC(Cl)=C1CCN(c2nc3c(cc2F)c(=O)c(C(=O)O)cn3C2CC2)CC1 [Compound 216, 7-[4-(1-Chloro-2-methylamino-ethylidene)-piperidin-1-yl]-1-cyclopropyl-6-fluoro-4-oxo-1,4-dihydro-[1,8]naphthyridine-3-carboxylic acid] | – | – | – | – | – | 0.06 (≈ 0.143 µM) | 0.12 (≈ 0.285 µM) | 2 (≈ 4.75 µM) | 1 (≈ 2.38 µM) | 0.25 (≈ 0.594 µM) | – | – |
| CNCC(C)=C1CCN(c2nc3c(cc2F)c(=O)c(C(=O)O)cn3C2CC2)CC1 [Compound 217, 1-Cyclopropyl-6-fluoro-7-[4-(1-methyl-2-methylamino-ethylidene)-piperidin-1-yl]-4-oxo-1,4-dihydro-[1,8]naphthyridine-3-carboxylic acid] | – | – | – | – | – | 0.25 (≈ 0.624 µM) | – | 2 (≈ 4.99 µM) | 2 (≈ 4.99 µM) | 0.25 (≈ 0.624 µM) | – | – |
| CNCC(C)=C1CCN(c2cc3c(cc2F)c(=O)c(C(=O)O)cn3C2CC2)CC1 [Compound 218, 1-Cyclopropyl-6-fluoro-7-[4-(1-methyl-2-methylamino-ethylidene)-piperidin-1-yl]-4-oxo-1,4-dihydro-quinoline-3-carboxylic acid] | – | 0.25 (≈ 0.626 µM) | – | – | 2 (≈ 5.01 µM) | 0.12 (≈ 0.3 µM) | – | 2 (≈ 5.01 µM) | – | – | – | – |
| CNCC(C)=C1CCN(c2cc3c(cc2F)c(=O)c(C(=O)O)cn3C2CC2)CC1 [Compound 219, 1-Cyclopropyl-6-fluoro-7-[4-(1-methyl-2-methylamino-ethylidene)-piperidin-1-yl]-4-oxo-1,4-dihydro-quinoline-3-carboxylic acid] | – | – | 8 (≈ 20 µM) | – | – | 0.5 (≈ 1.25 µM) | – | 8 (≈ 20 µM) | 4 (≈ 10 µM) | 0.5 (≈ 1.25 µM) | – | – |
| CNCC(C)=C1CCN(c2c(F)cc3c(=O)c(C(=O)O)cn(C4CC4)c3c2OC(F)F)CC1 [Compound 220, 1-Cyclopropyl-8-difluoromethoxy-6-fluoro-7-[4-(1-methyl-2-methylamino-ethylidene)-piperidin-1-yl]-4-oxo-1,4-dihydro-quinoline-3-carboxylic acid] | – | – | 2 (≈ 4.3 µM) | – | – | 0.12 (≈ 0.258 µM) | – | 4 (≈ 8.59 µM) | 0.5 (≈ 1.07 µM) | 0.5 (≈ 1.07 µM) | – | – |
| CNCC=C1CCN(c2c(F)cc3c(=O)c(C(=O)O)cn(C4CC4)c3c2OC)CC1 [Compound 221, 1-Cyclopropyl-6-fluoro-8-methoxy-7-[4-(2-methylamino-ethylidene)-piperidin-1-yl]-4-oxo-1,4-dihydro-quinoline-3-carboxylic Acid Trifluoroacetic Acid Salt] | – | – | 2 | 4 | 4 | – | – | – | – | – | – | – |
| CC(C)NCC(F)=C1CCN(c2nc3c(cc2F)c(=O)c(C(=O)O)cn3C2CC2)CC1 [Compound 247, 1-Cyclopropyl-6-fluoro-7-[4-(1-fluoro-2-isopropylamino-ethylidene)-piperidin-1-yl]-4-oxo-1,4-dihydro-[1,8]naphthyridine-3-carboxylic acid] | 0.5 (≈ 1.16 µM) | 0.5 (≈ 1.16 µM) | – | 8 (≈ 18.5 µM) | 2 (≈ 4.62 µM) | – | – | – | – | – | – | – |
| CC(C)NCC(Cl)=C1CCN(c2cc3c(cc2F)c(=O)c(C(=O)O)cn3C2CC2)CC1 [Compound 248, 7-[4-(1-Chloro-2-isopropylamino-ethylidene)-piperidin-1-yl]-1-cyclopropyl-6-fluoro-4-oxo-1,4-dihydro-quinoline-3-carboxylic acid] | 0.5 (≈ 1.12 µM) | 2 (≈ 4.46 µM) | – | 16 (≈ 35.7 µM) | 4 (≈ 8.93 µM) | – | – | – | – | – | – | – |
| CC(C)NCC(F)=C1CCN(c2cc3c(cc2F)c(=O)c(C(=O)O)cn3C2CC2)CC1 [Compound 249, 1-Cyclopropyl-6-fluoro-7-[4-(1-fluoro-2-isopropylamino-ethylidene)-piperidin-1-yl]-4-oxo-1,4-dihydro-quinoline-3-carboxylic acid] | 1 (≈ 2.32 µM) | 2 (≈ 4.64 µM) | – | 16 (≈ 37.1 µM) | 4 (≈ 9.27 µM) | – | – | – | – | – | – | – |
| CC(C)NCC(Cl)=C1CCN(c2c(F)cc3c(=O)c(C(=O)O)cn(C4CC4)c3c2OC(F)F)CC1 [Compound 250, 7-[4-(1-Chloro-2-isopropylamino-ethylidene)-piperidin-1-yl]-1-cyclopropyl-8-difluoromethoxy-6-fluoro-4-oxo-1,4-dihydro-quinoline-3-carboxylic acid] | 0.25 (≈ 0.486 µM) | 0.5 (≈ 0.973 µM) | – | 8 (≈ 15.6 µM) | 0.5 (≈ 0.973 µM) | – | – | – | – | – | – | – |
| CC(C)NCC(F)=C1CCN(c2c(F)cc3c(=O)c(C(=O)O)cn(C4CC4)c3c2OC(F)F)CC1 [Compound 251, 1-Cyclopropyl-8-difluoromethoxy-6-fluoro-7-[4-(1-fluoro-2-isopropylamino-ethylidene)-piperidin-1-yl]-4-oxo-1,4-dihydro-quinoline-3-carboxylic acid] | 0.5 (≈ 1.01 µM) | 1 (≈ 2.01 µM) | – | 16 (≈ 32.2 µM) | > 2 | – | – | – | – | – | – | – |
| COc1c(N2CCC(=C(F)CNC(C)C)CC2)c(F)cc2c(=O)c(C(=O)O)cn(C3CC3)c12 [Compound 252, 1-Cyclopropyl-6-fluoro-7-[4-(i-fluoro-2-isopropylamino-ethylidene)-piperidin-1-yl]-8-methoxy-4-oxo-1,4-dihydro-quinoline-3-carboxylic Acid trifluoroacetic acid salt] | 0.5 | 1 | – | 8 | 4 | – | – | – | – | – | – | – |
| NC/C(F)=C1/CCCN(c2nc3c(cc2F)c(=O)c(C(=O)O)cn3C2CC2)C1 [Compound 253, (E)-7-[3-(2-Amino-1-fluoro-ethylidene)-piperidin-1-yl]-1-cyclopropyl-6-fluoro-4-oxo-1,4-dihydro-[1,8]naphthyridine-3-carboxylic acid trifluoroacetic acid salt] | – | – | 4 | > 16 | 4 | – | – | – | – | – | 0.06 | 0.5 |
| NC/C(Cl)=C1/CCCN(c2nc3c(cc2F)c(=O)c(C(=O)O)cn3C2CC2)C1 [Compound 254, (E)-7-[3-(2-Amino-1-chloro-ethylidene)-piperidin-1-yl]-1-cyclopropyl-6-fluoro-4-oxo-1,4-dihydro-[1,8]naphthyridine-3-carboxylic acid] | 0.06 (≈ 0.147 µM) | 0.25 (≈ 0.614 µM) | – | 4 (≈ 9.83 µM) | 4 (≈ 9.83 µM) | – | – | – | – | – | – | – |
| NC/C(Cl)=C1\CCCN(c2nc3c(cc2F)c(=O)c(C(=O)O)cn3C2CC2)C1 [Compound 255, (Z)-7-[3-(2-Amino-1-chloro-ethylidene)-piperidin-1-yl]-1-cyclopropyl-6-fluoro-4-oxo-1,4-dihydro-[1,8]naphthyridine-3-carboxylic acid] | 0.5 (≈ 1.23 µM) | 4 (≈ 9.83 µM) | 2 (≈ 4.92 µM) | 4 (≈ 9.83 µM) | 16 (≈ 39.3 µM) | – | – | – | – | – | – | – |
| NC/C(F)=C1/CCCN(c2cc3c(cc2F)c(=O)c(C(=O)O)cn3C2CC2)C1 [Compound 256, (E)-7-[3-(2-Amino-1-fluoro-ethylidene)-piperidin-1-yl]-1-cyclopropyl-6-fluoro-4-oxo-1,4-dihydro-quinoline-3-carboxylic Acid Trifluoroacetic Acid Salt] | – | – | 1 | 1 | 1 | – | – | – | – | – | 0.03 | 0.06 |
| NC/C(Cl)=C1/CCCN(c2cc3c(cc2F)c(=O)c(C(=O)O)cn3C2CC2)C1 [Compound 257, (E)-7-[3-(2-Amino-1-chloro-ethylidene)-piperidin-1-yl]-1-cyclopropyl-6-fluoro-4-oxo-1,4-dihydro-quinoline-3-carboxylic acid] | 0.03 (≈ 0.0739 µM) | 0.06 (≈ 0.148 µM) | 0.5 (≈ 1.23 µM) | 0.5 (≈ 1.23 µM) | 0.5 (≈ 1.23 µM) | – | – | – | – | – | – | – |
